This is an account of results in US5081284A, “Proteinase inhibitor” (Suntory Limited, priority 1989, dated 1992).

As usually defined, the IC50 is the midpoint of a concentration-inhibition curve.

Read-outs that look alike come from different tables or passages of the source. Peptide text beside a SMILES is read from it. * marks the point of attachment. Cbz = O=C(OCc1ccccc1)*

One test has as its target cathepsin B (Bos taurus, UniProt P07688). Kind of test: Anti-cathepsin activity (cathepsin B, benzyloxycarbonyl-L-lysine-p-nitrophenyl ester substrate). In kind it is biochemical, bovine. To be noted: Table 8 (Example 29); pH 5.1, 30° C., from bovine spleen; read-out: Inhibitory activity toward cathepsin B, IC50. As to the method:
A mixture of a test compound of the present invention and an acetate buffer solution (25 mM, pH=5.1, with 1 mM EDTA, 3.15 ml) containing a substrate (benzyloxycarbonyl-L-lysine-p-nitrophenyl ester, 0.114 mg) was preincubated at 30° C. for 1 minute. To the mixture, a solution (0.05 ml) of cathepsin B (derived from bovine spleen; product of Sigma; 0.05 units) in the acetate buffer was added to start the reaction. Immediately after the start of reaction, the change in absorbance at 326 nm was measured and the inhibitory activity of the test compound was determined by comparison with the control solution.

For the next test, the target named is T1, calpain I (Homo sapiens, UniProt P07384).
T1 sequence (P07384 1-714): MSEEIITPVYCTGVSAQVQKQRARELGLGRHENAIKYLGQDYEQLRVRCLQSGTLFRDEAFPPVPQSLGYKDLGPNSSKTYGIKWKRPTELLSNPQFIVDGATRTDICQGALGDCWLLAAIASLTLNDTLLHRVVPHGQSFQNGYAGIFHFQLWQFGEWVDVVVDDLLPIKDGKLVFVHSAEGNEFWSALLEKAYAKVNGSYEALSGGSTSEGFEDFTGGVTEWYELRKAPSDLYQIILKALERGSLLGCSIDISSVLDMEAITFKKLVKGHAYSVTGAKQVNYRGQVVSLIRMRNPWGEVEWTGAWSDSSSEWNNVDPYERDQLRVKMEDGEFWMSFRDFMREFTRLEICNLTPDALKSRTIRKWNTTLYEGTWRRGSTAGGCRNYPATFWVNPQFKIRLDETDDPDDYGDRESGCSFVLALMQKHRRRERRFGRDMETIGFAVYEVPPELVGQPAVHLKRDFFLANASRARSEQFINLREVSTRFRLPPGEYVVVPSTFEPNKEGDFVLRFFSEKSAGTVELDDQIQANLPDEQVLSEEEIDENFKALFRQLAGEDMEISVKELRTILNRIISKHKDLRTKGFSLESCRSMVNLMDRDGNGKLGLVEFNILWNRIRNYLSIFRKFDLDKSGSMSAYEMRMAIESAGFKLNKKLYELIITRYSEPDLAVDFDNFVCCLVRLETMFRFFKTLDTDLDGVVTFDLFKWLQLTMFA
T1 sequence (P04632 1-268 partner): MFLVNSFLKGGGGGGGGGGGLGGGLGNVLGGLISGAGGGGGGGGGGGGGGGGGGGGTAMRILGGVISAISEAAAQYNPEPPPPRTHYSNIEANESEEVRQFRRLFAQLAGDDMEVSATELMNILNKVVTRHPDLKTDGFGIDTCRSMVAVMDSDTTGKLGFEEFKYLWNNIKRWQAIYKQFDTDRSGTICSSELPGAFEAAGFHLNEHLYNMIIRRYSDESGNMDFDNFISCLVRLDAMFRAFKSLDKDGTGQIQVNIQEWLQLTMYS
The experiment in a line: Anti-calpain activity, calpain I (casein hydrolysis, Ross-Schatz method). In kind it is biochemical.

The target in another test is T2, calpain II (Homo sapiens, UniProt P17655).
T2 sequence (P17655 1-700): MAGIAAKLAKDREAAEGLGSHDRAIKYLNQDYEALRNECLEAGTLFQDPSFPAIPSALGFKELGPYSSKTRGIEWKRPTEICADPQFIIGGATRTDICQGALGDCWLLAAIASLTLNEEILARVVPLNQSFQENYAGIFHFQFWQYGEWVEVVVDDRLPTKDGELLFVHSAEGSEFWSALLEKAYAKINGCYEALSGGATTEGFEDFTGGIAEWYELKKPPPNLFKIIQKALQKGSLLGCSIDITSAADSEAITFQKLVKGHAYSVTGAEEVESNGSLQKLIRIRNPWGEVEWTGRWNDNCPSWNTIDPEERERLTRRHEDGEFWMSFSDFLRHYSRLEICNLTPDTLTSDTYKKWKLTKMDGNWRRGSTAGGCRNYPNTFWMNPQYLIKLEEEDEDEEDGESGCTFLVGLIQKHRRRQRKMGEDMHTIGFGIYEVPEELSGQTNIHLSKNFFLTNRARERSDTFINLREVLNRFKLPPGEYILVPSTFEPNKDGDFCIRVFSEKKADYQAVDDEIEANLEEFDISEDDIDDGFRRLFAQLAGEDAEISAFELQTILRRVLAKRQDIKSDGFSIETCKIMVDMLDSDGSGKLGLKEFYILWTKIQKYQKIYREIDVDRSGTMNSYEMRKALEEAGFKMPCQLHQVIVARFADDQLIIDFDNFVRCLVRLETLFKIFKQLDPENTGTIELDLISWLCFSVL
T2 sequence (P04632 1-268 partner): T1 sequence (P04632 1-268 partner)
Kind of test: Anti-calpain activity, calpain II (casein hydrolysis, Ross-Schatz method). It counts as biochemical.

Another test has as its target T3, papain (Carica papaya, UniProt P00784).
T3 sequence (P00784 134-345): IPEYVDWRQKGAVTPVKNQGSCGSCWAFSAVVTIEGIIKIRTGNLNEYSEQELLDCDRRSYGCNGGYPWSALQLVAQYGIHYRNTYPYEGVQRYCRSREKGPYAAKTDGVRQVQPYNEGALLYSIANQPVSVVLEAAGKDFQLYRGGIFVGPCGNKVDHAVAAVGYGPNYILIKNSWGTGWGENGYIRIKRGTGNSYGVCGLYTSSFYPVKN
The experiment in a line: Anti-papain activity (casein hydrolysis, Lowry-Folin method). It counts as biochemical. As to the method: (§1) A mixture of a test compound of the present invention, papain (0.015 units) and a citrate buffer solution (20 mM, pH=6.2,1 ml) containing EDTA (0.88 mg) was preincubated at 30° C. for 5 minutes and a substrate solution (1 ml) was added to start the reaction. The substrate was a 1% solution of casein in the citrate buffer. The reaction was performed at 30° C. for 20 minutes. The reaction was quenched by adding 6.5% trichloroacetic acid (3 ml) to the reaction solution. The amount of casein that had been hydrolyzed enzymatically in the trichloroacetic acid soluble fraction was measured by the Lowry-Folin method and the inhibitory activity of the test compound was determined by comparison with the control solution.
as §1, with “pH=6.2, 1” for “pH=6.2,1”

[1] abbreviates: Table 6 (Example 29), pH 7.5, 30° C., 30 minutes, casein, read-out: Inhibitory activity toward calpain I, IC50.
[2] abbreviates: Table 7 (Example 29), pH 7.5, 30° C., 30 minutes, casein, read-out: Inhibitory activity toward calpain II, IC50.
[3] abbreviates: Table 5 (Example 29), pH 6.2, 30° C., 20 minutes, casein, read-out: Inhibitory activity toward papain, IC50.
The mark [4] stands for this setting: Table 4 (Example 28), pH 7.5, 30° C., 30 minutes, casein, read-out: Inhibitory activity toward calpain II, IC50.
Where [5] appears, read: Table 3 (Example 28), pH 7.5, 30° C., 30 minutes, casein, read-out: Inhibitory activity toward calpain I, IC50.
The mark [6] stands for this setting: Table 2 (Example 28), pH 6.2, 30° C., 20 minutes, casein, read-out: Inhibitory activity toward papain, IC50.

Regarding `CCCCCCCC(=O)N[C@@H](CC(C)C)C(=O)N[C@H](C=O)CCCC` [Example 1, N-caprylyl-L-leucyl-L-norleucinal], the values for the half-inhibitory concentration (IC50) on cathepsin B and at calpain I (setting [1]) were 0.11 µM and 0.16 µM, respectively.

For the molecule `CCCCCC(=O)N[C@@H](CC(C)C)C(=O)N[C@H](C=O)CCCC` [Example 2, N-caproyl-L-leucyl-L-norleucinal], the IC50 at cathepsin B came out at 9.2 µM.

For the molecule `CCCC[C@@H](C=O)NC(=O)[C@H](CC(C)C)NC(=O)OC(C)(C)C` [Example 4, N-(t-butyloxycarbonyl)-L-leucyl-L-norleucinal], the values for the half-maximal inhibitory concentration (IC50) at cathepsin B, at calpain II (setting [2]) and on calpain I (setting [1]) were 0.058 µM, 0.12 µM and 0.03 µM, respectively.

Consider `CCCC[C@@H](C=O)NC(=O)[C@H](CC(C)C)NC(=O)OC12CC3CC(CC(C3)C1)C2` [Example 5, N-adamantyloxycarbonyl-L-leucyl-L-norleucinal], for which the results for the IC50 on cathepsin B, against papain and on calpain I (setting [1]) were 0.18 µM, 0.21 µM and 0.15 µM, respectively.

Take `CCCC[C@@H](C=O)NC(=O)[C@H](CC(C)C)NC(=O)OCC(Cl)(Cl)Cl` [Example 10, N-(2,2,2-trichloroethyloxycarbonyl)-L-leucyl-L-norleucinal]: the IC50 at cathepsin B worked out at 0.33 µM; at papain (setting [3]) it was 0.26 µM; on calpain I (setting [1]), 0.096 µM.

As for `CCCC[C@@H](C=O)NC(=O)[C@H](CC(C)C)NC(=O)OCC[Si](C)(C)C` [Example 11, N-(2-trimethylsilylethyloxycarbonyl)-L-leucyl-L-norleucinal], the IC50 at cathepsin B is 0.96 µM.

On to `CCCC[C@@H](C=O)NC(=O)[C@H](CC(C)C)NS(=O)(=O)c1ccc(C)cc1` [Example 12, N-(p-toluenesulfonyl)-L-leucyl-L-norleucinal], for which the 50% inhibitory concentration (IC50) amounted to 1.2 µM at cathepsin B, 0.18 µM at papain (setting [3]) and 0.11 µM on calpain I (setting [1]).

For `CCCC[C@@H](C=O)NC(=O)[C@H](CC(C)C)NC(c1ccccc1)(c1ccccc1)c1ccccc1` [Example 15, N-triphenylmethyl-L-leucyl-L-norleucinal], at cathepsin B, the concentration for half-maximal inhibition (IC50) came out at 32 µM.

Turning to `CCCC[C@@H](C=O)NC(=O)[C@H](CC(C)C)NC(C)=CC(=O)c1ccccc1` [Example 16, N-(2-benzoyl-1-methylvinyl)-L-leucyl-L-norleucinal], the 50% inhibitory concentration (IC50) on cathepsin B was 7 µM; on papain (setting [3]), 0.096 µM; on calpain I (setting [1]), 0.4 µM.

Regarding `CCCC[C@@H](C=O)NC(=O)[C@H](CC(C)C)N1C(=O)c2ccccc2C1=O` [Example 17, N-phthaloyl-L-leucyl-L-norleucinal], on cathepsin B, the IC50 worked out at 100 µM.

On to `CCCC[C@@H](C=O)NC(=O)[C@H](CCCC)NC(=O)OCc1ccccc1` [Example 18, N-benzyloxycarbonyl-L-norleucyl-L-norleucinal], for which the IC50 at cathepsin B was found to be 0.11 µM; at calpain I (setting [1]) it was 0.7 µM.

For `CC(C)C[C@H](NC(=O)OCc1ccccc1)C(=O)N[C@H](C=O)Cc1ccccc1` [Example 19, N-benzyloxycarbonyl-L-leucyl-L-phenylalaninal] (Cbz-Leu-Phe-aldehyde), the figures for the 50% inhibitory concentration (IC50) at calpain II (setting [4]) and at calpain I (setting [5]) were 0.035 µM and 0.1 µM, respectively.

`CCCC[C@@H](C=O)NC(=O)[C@H](CC(C)C)NC(=O)OCc1ccccc1` [Example 20, N-benzyloxycarbonyl-L-leucyl-L-norleucinal]: the half-maximal inhibitory concentration (IC50) amounted to 0.31 µM on papain (setting [3]); 0.034 µM on calpain II (setting [4]); 0.13 µM on calpain II (setting [2]); 0.052 µM at calpain I (setting [5]); 0.71 µM at calpain I (setting [1]).

On to `CSCC[C@@H](C=O)NC(=O)[C@H](CC(C)C)NC(=O)OCc1ccccc1` [Example 21, N-benzyloxycarbonyl-L-leucyl-L-methioninal] (Cbz-Leu-Met-aldehyde), for which the half-maximal inhibitory concentration (IC50) on calpain II (setting [4]) was found to be 0.025 µM.

As for `CC(C)C[C@H](NC(=O)CCCc1ccccc1)C(=O)N[C@H](C=O)Cc1ccccc1` [Example 22, N-(4-phenyl)butanoyl-L-leucyl-L-phenylalaninal], the values for the concentration for half-maximal inhibition (IC50) on papain (setting [6]) and at calpain II (setting [4]) were 0.018 µM and 0.029 µM, respectively.

For `CCCC[C@@H](C=O)NC(=O)[C@H](CC(C)C)NC(=O)CCCc1ccccc1` [Example 23, N-(4-phenylbutanoyl)-L-leucyl-L-norleucinal], the results for the half-inhibitory concentration (IC50) at papain (setting [6]), at calpain II (setting [4]) and on calpain I (setting [5]) were 0.015 µM, 0.32 µM and 0.04 µM, respectively.

As for `CSCC[C@@H](C=O)NC(=O)[C@H](CC(C)C)NC(=O)CCCc1ccccc1` [Example 24, N-(4-phenyl)butanoyl-L-leucyl-L-methioninal], the concentration for half-maximal inhibition (IC50) at papain (setting [6]) turned out to be 0.019 µM; at calpain II (setting [4]), 0.071 µM; at calpain I (setting [5]), 0.038 µM.

With `CCCC[C@H](NC(=O)[C@H](CC(C)C)NC(=O)OCc1ccccc1)C(=O)CCl` [Example 26, N-benzyloxycarbonyl-L-leucine 1s-chloroacetyl-n-pentylamide], the IC50 amounted to 0.012 µM on papain (setting [6]), 0.12 µM at calpain II (setting [4]) and 0.15 µM at calpain I (setting [5]).

Consider `CCCC[C@H](NC(=O)[C@H](CC(C)C)NC(=O)CCCc1ccccc1)C(=O)CCl` [Example 27, N-(4-phenylbutanoyl)-L-leucyl-L-norleucyl chloromethyl], for which the IC50 on papain (setting [6]) was found to be 0.025 µM; at calpain II (setting [4]), 0.14 µM; at calpain I (setting [5]), 0.071 µM.

On to `CC(=O)N[C@@H](CC(C)C)C(=O)N[C@@H](CC(C)C)C(=O)N[C@H](C=O)CCCNC(=N)N` [Leupeptin, reference compound], for which the half-maximal inhibitory concentration (IC50) at papain (setting [6]) was 0.053 µM; against calpain II, 0.94 µM; at calpain I, 0.21 µM.
